Test results taken from patent publication US10837957B2, “In vitro model for pathological or physiologic conditions” (HemoShear, LLC, priority 2012, dated 2020).
Blank lines part the entries; values can stand above or below the molecule they belong to.

Key:
hepatocytes [1] = experiment: In vitro fatty liver model: lipid accumulation (Nile red, Oil Red O, total triglycerides); format: cell-based, rat; conditions: 1.5 μM pioglitazone, high insulin/glucose media
Experimental: Samples were then blocked in 5% goat serum, 0.2% blotting grade non-fat dry milk blocker, and 1% BSA in PBS for 45 minutes. The samples were then washed thrice in 0.1% BSA in PBS and incubated with 1:5000 dilution of Nile red (1 mM stock), 1:1000 DRAQS (a fluorescent DNA dye; Cell Signalling), 1:500 ALEXA FLUOR 488 conjugated phalloidin (Life Technologies), and 1% BSA in PBS for thirty minutes and protected from light. The samples were washed in 0.1% BSA in PBS thrice for five minutes each and mounted on glass cover slips using PROLONG GOLD antifade mounting media (an antifade reagent; Invitrogen). The samples were imaged on a Nikon C1+ Confocal System microscope. Oil Red O Assay: Accumulation of intracellular lipids within hepatocytes was assessed by adapting and modifying a commercially available Steatosis Colorimetric Assay Kit (Cayman Chemical). At the end of the culture period, 2 cm^2 sized porous membrane segments containing the hepatocytes from devices under healthy and steatotic conditions were washed with PBS and fixed in 4% paraformaldehyde for 30 minutes. […] The solution was then transferred to clear 96-well plates and absorbance was read at 490-520 nm in a spectrophotometer. Measurement of Total Triglycerides: Triglyceride content was assessed using a commercially available colorimetric assay kit (Cayman Triglyceride Colorimetric Assay Kit, Cat #10010303). […]

hepatocytes [2] = experiment: In vitro fatty liver model: RT-PCR of metabolic and lipid pathway genes; format: cell-based, rat; conditions: 1.5 μM pioglitazone, high insulin/glucose disease conditions
NFκB = experiment: Adenovirus NFκB-luciferase reporter in ECs and SMCs; format: cell-based
Experimental: (§1) Five different donor pairs were used to analyze the oxLDL (50 μg/ml) response compared to nLDL (50 μg/ml) within the atheroprone hemodynamic environment in endothelial cells and smooth muscle cells. […] Significant genes were considered using an FDR of 0.01. Gene expression results are reported as the relative expression of the gene as compared to the expression of β-2 microglobulin (B2M). Protein expression results are reported as the relative expression of the protein as compared to the expression of actin. Activity of NFκB was assessed using an adenovirus NFκB-luciferase (Ad-NFKB-luc) reporter infected in ECs and SMCs.

endothelial cells [3] = experiment: oxLDL and TNFα in hemodynamic environment: RT-PCR gene expression; format: cell-based; conditions: atheroprone
Experimental: To emulate more inflammatory stages of atherosclerosis, it is desirable to combine multiple circulating factors to better emulate the complexity found within human blood vessels. […] The media in the upper volume was then exchanged for media containing 0.05 ng/ml TNFα and 50 μg/ml of oxLDL. Media containing only 50 μg/ml of nLDL was used as a control.
Following 24 hours of shear stress preconditioning with atheroprotective or atheroprone hemodynamic forces, 50 μg/ml of oxLDL and 0.05 ng/ml of TNFα were added to upper volume (containing the endothelial cells). This concentration of TNFα is similar to plasma concentrations of TNFα observed in patients with cardiovascular disease. In devices not receiving oxLDL, nLDL was added to the upper volume at the same concentration and used as a vehicle control. Shear stress application was continued for an additional 24 hours in the presence of TNF-a and oxLDL (see FIG. 5). Gene expression analysis was performed using RT-PCR.

[4] = test system: endothelial cells and smooth muscle cells; experiment: oxLDL in hemodynamic environment: gene array, gene, protein and cytokine expression in co-culture; format: cell-based; conditions: for number of genes regulated as compared to nLDL: atheroprone, 50 μg/ml oxLDL vs 50 μg/ml nLDL
Experimental: Following 16-24 hours of shear stress preconditioning with atheroprotective or atheroprone hemodynamic forces, oxLDL was added to upper volume (containing the endothelial cells) at a concentration of 10-50 μg/ml (FIG. 5). In devices not receiving oxLDL, nLDL was added to the upper volume at the same concentration and used as a vehicle control. This concentration of oxLDL is similar to plasma concentrations of oxLDL observed in patients with cardiovascular disease. Shear stress application was continued for an additional 24 hours in the presence of oxLDL.
as §1

[5] = test system: endothelial cells and smooth muscle cells; experiment: Aldosterone in hemodynamic environment: gene array analysis; format: cell-based; conditions: aldosterone 1 mM vs vehicle; healthy and atheroprone
Experimental: Aldosterone at a concentration of 1 mM or a vehicle control (VEH) was added to the upper volume and RNA was collected for gene array analysis.

[6] = test system: endothelial cells and smooth muscle cells; experiment: ANG2 in hemodynamic environment: gene array analysis; format: cell-based; conditions: ANG2 10 nM (10.46 ng/ml) vs DMSO vehicle; healthy and atheroprone
Experimental: ANG2 at a concentration of 10 nM (10.46 ng/ml) or a DMSO vehicle control (VEH) was added to the upper volume and RNA was collected for gene array analysis.

primary rat hepatocytes = experiment: Toxicity to hepatocytes cultured under controlled flow; conditions: 50 μM dexamethasone
cytochrome p450 3A = experiment: Cytochrome p450 activity assay (P450-GLO) in hepatocytes, induction; format: cell-based, rat; conditions: controlled hemodynamics 0.6 dynes/cm^2, dexamethasone 02.5 μM, 48 hours, day 7; DMSO 11.64
cytochrome p450 1A/1B = experiment: as above
[7] = test system: Endothelial/smooth muscle cell co-cultures; experiment: Coculture thrombosis assay with shear stress, Protocol A (fibrin deposition); format: cell-based, human
Experimental: (§2) Human endothelial cells were co-cultured with or without smooth muscle cells in the presence or absence of human-derived, region-specific hemodynamics. Endothelial cells were exposed to TNFα at various concentrations and incubated in human, platelet-free plasma supplemented by ALEXA FLUOR 488 (A488, a fluorescent dye)-labeled fibrinogen. Conversion of A488-fibrinogen to A488-fibrin and deposition on the endothelium was quantified by confocal microscopy.
Following 24 hours of shear stress application (atheroprone or atheroprotective), the media was supplemented with TNFα at a concentration of 0.05 ng/mL or 0.10 ng/mL and shear stress was continued for an additional 24 hours, as shown in FIG. 3A. Media was then removed from both the upper and lower chambers, and both the endothelial cells and smooth muscle cells are washed twice with PBS. Endothelial cells were then incubated for 15 minutes at 37° C. with PFP supplemented with 37.5 μg/mL ALEXA-488 human fibrinogen, 20 μg/mL corn trypsin inhibitor, and 10 mM calcium, and fixed and imaged as described above for monocultures.

endothelial cells [8] = experiment: TNFα in hemodynamic environment: inflammatory gene expression; format: cell-based; conditions: 0.1-1 ng/ml TNFα, atheroprone hemodynamic forces; not seen at same levels in static
Experimental: Following 24 hours of shear stress preconditioning with atheroprotective or atheroprone hemodynamic forces, TNFα was added to upper volume (containing the endothelial cells) at a concentration of 0.05-1 ng/ml (see FIG. 5). This concentration of TNFα is similar to plasma concentrations of TNFα observed in patients with cardiovascular disease. Shear stress application was continued for an additional 24 hours in the presence of TNFα.

[9] = test system: Tissue Factor Pathway Inhibitor (TFPI); experiment: Expression of genes relevant to thrombosis in co-cultures under hemodynamic flow; format: cell-based, human; conditions: TNFα stimulation; both endothelial and smooth muscle cells
Excerpt: FIG. 2B depicts a heat map of relative gene expression in endothelial and smooth muscle cells (grown under atheroprone or atheroprotective conditions; see FIG. 2A) of several genes relevant to thrombosis. The relative changes in gene expression of Tissue Factor (F3) and Thrombomodulin (THBD) are presented below the heat map. Atheroprone hemodynamics up-regulate Tissue Factor (F3) compared to atheroprotective shear stress. […] In addition, TNFα stimulation reduces Tissue Factor Pathway Inhibitor (TFPI) in both endothelial and smooth muscle cells.

endothelial cells [10] = experiment: Static monoculture thrombosis assay (A488-fibrin deposition by confocal microscopy); format: cell-based, human; conditions: static conditions; for fibrin deposition, mean fluorescence intensity: 4 hours
Experimental: as §2
For static monocultures of endothelial cells, endothelial cells were plated at 100,000 cells/cm^2 on coverslips and allowed to adhere for 24 hours. After 24 hours, media was exchanged with media containing 0 ng/ml, 1 ng/ml, 10 ng/ml, or 20 ng/ml TNFα. Cells were incubated for 4 hours at 37° C. Following incubation, media was removed and cells were washed twice with PBS. Cells were then incubated an additional 15 minutes at 37° C. with Human Platelet Free Plasma (PFP) supplemented with 37.5 μg/mL ALEXA-488 human fibrinogen, 20 μg/mL corn trypsin inhibitor, and 10 mM calcium. This protocol is depicted in FIG. 1A. After 15 minutes, the cells were fixed with 4% paraformaldehyde (PFA) and stained with 0.5 nM SYT083 (a fluorescent nucleic acid stain) in 10 mM Tris, 1 mM EDTA buffer for 45 minutes. Coverslips were mounted onto coverglass using FLUOROMOUNT-G (a mounting agent) and imaged.

[11] = test system: endothelial cell/smooth muscle cell co-cultures; experiment: HDL in hemodynamic environment; format: cell-based; conditions: HDL 45 μg/ml or 90 μg/ml, hemodynamic shear stress
Experimental: An additional component of plasma cholesterol distinct from nLDL or oxLDL is HDL. […] HDL was then added to the upper volume at a concentration of 45-1,000 μg/ml. This broad range reflects the broad range of HDL concentrations that can exist within human patients. HDL concentrations in individuals at risk for vascular disease are generally less than about 300 μg/ml, while HDL concentrations in healthy individuals range from greater than about 300 μg/ml up to about 2,000 μg/ml in healthy exercising patients.
In additional experiments, endothelial cell/smooth muscle cell co-cultures plated as described above were preconditioned for 16 hours with hemodynamic shear stress. From hours 16-24 the cells were additionally primed with 0.05 ng/ml TNFα and 50 μg/ml of oxLDL (compared to a vehicle control containing 50 μg/ml nLDL) in the upper volume. At 24 hours, 45 μg/ml or 90 μg/ml HDL was added to the media in the upper volume and hemodynamic shear stress was continued for the next 24 hours (hours 24-48).

[12] = atheroprone hemodynamic environment

total triglyceride content of hepatocytes (hepatocytes [1]): reduced
expression of metabolic genes such as Cyp3A2 (hepatocytes [2]): restored
Molecule: CCc1ccc(CCOc2ccc(CC3SC(=O)NC3=O)cc2)nc1 (stereo not drawn) [Pioglitazone, pioglitazone]

Molecule: oxidized low-density lipoprotein [oxLDL]
NFκB activity (luciferase reporter) (NFκB; endothelial cells, atheroprone hemodynamics): further heightened
NFκB signaling (luciferase reporter) (NFκB; smooth muscle cells, oxLDL added to upper volume only): elevated NFKB signaling
eNOS gene expression (NOS3) (endothelial cells [3]; 50 μg/ml oxLDL): reduced
E-Selectin (SELE) gene expression (endothelial cells [3]; 50 μg/ml oxLDL vs nLDL control): higher levels
atheroprotective signaling (eNOS and KLF2) gene expression ([4]; atheroprone conditions): reduced atheroprotective signaling
HO-1 and ATF3 gene expression ([4]; atheroprone conditions compared to traditional static, oxLDL 10-50 μg/ml vs nLDL): activates these genes at much higher levels
inflammatory genes IL8 and E-Selectin (SELE) expression ([4]; atheroprone conditions, not regulated in static cultures): activate
VCAM-1 protein expression [4, 12]: elevated
phosphorylation of eNOS [4, 12]: reduced phosphorylation
secreted cytokines IL6, IL8 and MCP-1 [4, 12]: increased levels
number of genes regulated as compared to nLDL ([4]; endothelial cells, 5 donors): 688 genes
number of genes regulated as compared to nLDL ([4]; smooth muscle cells, 4 donors): 304 genes

Molecule: C[C@]12CCC(=O)C=C1CC[C@@H]1[C@@H]2[C@@H](O)C[C@]2(C=O)[C@@H](C(=O)CO)CC[C@@H]12 [aldosterone, Aldosterone]
inflammatory genes (gene array) [5]: upregulated

Molecule: Angiotensin II (DRVYIHPF; Angiotensin-2; UniProt P01019 25-32, looked up) [ANG2]
inflammatory genes (gene array) [6]: upregulated

3A response to inducer (cytochrome p450 activity normalized to ATP) (cytochrome p450 3A): 57.53
Molecule: C[C@@H]1C[C@H]2[C@@H]3CCC4=CC(=O)C=C[C@]4(C)[C@@]3(F)[C@@H](O)C[C@]2(C)[C@@]1(O)C(=O)CO [Dexamethasone, dexamethasone]
toxicity (primary rat hepatocytes): toxic

Molecule: Cc1ccc2cc3c(ccc4ccccc43)c3c2c1CC3 [3-MC, 3-Methyl Cholanthrene]
fold lower levels giving induction responses under controlled hemodynamics (cytochrome p450 1A/1B; compared to static (1 μM static, 0.1 μM controlled hemodynamics)): 10 fold
1A/1B response to inducer (cytochrome p450 activity normalized to ATP) (cytochrome p450 1A/1B; controlled hemodynamics 0.6 dynes/cm^2, 3-MC 0.1 μM, 48 hours, day 7, DMSO 4.87): 133.06

Molecule: tumor necrosis factor-α [TNFα]
fibrin deposition, mean fluorescence intensity ([7]; 0.05 ng/ml TNFα, 24 hours, atheroprone hemodynamics from internal carotid sinus, Protocol A): 1.9e7
fold lower levels of TNFα inducing fibrin deposition as compared to static cultures ([7]; atheroprone hemodynamic priming): 100- to 200 fold
inflammatory response (E-Selectin, ICAM, VCAM, IL8 expression) (endothelial cells [8]): induced an inflammatory response
Tissue Factor Pathway Inhibitor (TFPI) expression [9]: reduces
fibrin deposition, mean fluorescence intensity (endothelial cells [10]; 1 ng/ml TNFα): 1.17e5
fibrin deposition, mean fluorescence intensity (endothelial cells [10]; 10 ng/ml TNFα): 2.69e7
fibrin deposition, mean fluorescence intensity (endothelial cells [10]; 20 ng/ml TNFα): 3.61e7
TNFα concentration needed for activation relative to physiological levels (endothelial cells [10]): approximately 200 fold

Molecule: high-density lipoprotein [HDL]
activation of pro-inflammatory genes and proteins [11]: blocking activation
atheroprotective genes [11]: activates
